The text below walks through data of patent US20220062173A1, “LIQUID COMPOSITIONS” (JOHNSON & JOHNSON CONSUMER INC., priority 2019, published 2022).

Entries after “also recorded” stand apart in the source; their conditions may differ.

In one data set the test system is throat. Description: Additional cooling evaluation, targeted throat cooling. The format is in vivo. The settings on record: Yes/No. From the text:
(§1) Cooling sensate samples were requested from various flavor suppliers and were included into the formulation at a level recommended by the manufacturer and evaluated by various individuals in terms of cooling efficiency/intensity, area within the oral cavity where cooling could be felt, cooling onset time, and duration of cooling. It was interesting to see that all the sensate provided different degree of cooling and the area within the oral cavity where cooling could be felt was different.

A further data set has as its system oral cavity. Description: Taste-test evaluation of cooling sensates in base cough-cold liquid. Particulars: for Cooling site: area within the oral cavity where cooling could be felt; for Cooling Intensity: sensate in base cough-cold liquid at the listed addition level. The format is in vivo. The procedure:
Various polymeric additives were combined into a base cough-cold liquid formula to determine interaction, and included various grades of Avicel®, CMC, HPMC among others. A synergistic effect was observed when Poloxamer was also included in the formulation containing above mentioned rheology modifier and a cooling flavor. A cooling sensation in the back of the throat could be felt, and the sensation lasted longer (approximately 5-10 min or even longer in some instances). […] The presence of just the viscosity modifiers and no Poloxamer, the same flavor did provide targeted cooling, but the extent and duration was less.
as §1
Mixing Procedure: The following procedure was used to mix the materials in Table 3. The formulation was prepared by adding purified water to a suitable vessel. The Avicel RC591 was then added while mixing using a high shear mixer until dissolved, followed by addition of propylene glycol while mixing using a propeller mixer at about 500-1000 RPM. The rest of the ingredients were added and mixed at approximately 50-100 RPM for at least 30 minutes. After complete dissolution, the solution was heated using a water bath to a temperature between […] for 15 minutes while continuously stirring. The solution was cooled to room temperature before adding propylene glycol while mixing. The rest of the ingredients were added and mixed for at least 30 minutes.

The conditions of data set [1]: solvents named; cited from earlier work.
Data set [2] can be described thus: Solution conductivity measurement. It counts as physicochemical. As to the method:
Conductivity of solutions containing Poloxamer-188 and Cooler #2 in purified water at different concentrations was measured using a MultiLab 4010-2 conductivity meter with an IDS 4320 Conductivity and Temperature Sensor.
It is important to note that the solutions turned cloudy once Cooler #2 was added to the solution, indicating formation of an emulsion. The turbidity of the solutions was not very different as the level of Cooler #2 was increased.
Conductivity of the Water-PG solutions containing 0.35% CMC and 0.35% HPMC was also measured in water and in combination with Cooler #2 and Poloxamer. The conductivity results are summarized below in Table 5.

With `COc1ccc(NC(=O)[C@@H]2C[C@H](C)CC[C@H]2C(C)C)cc1` [WS 12, (1R,2S,5R)-N-(4-methoxyphenyl)-5-methyl-2-(1-methylethyl) cyclohexanecarboxamide], the “Targeted Throat Cooling” value with throat is “No”. In the data set with oral cavity (Table 3), the Duration is 5 to 7 min and the Overall entry is recorded as “Mild cooling”. Further, the “Onset time” value in the data set with oral cavity (Table 3, values in min) is 60 to 120 s. Further, in the data set with oral cavity, the Cooling site entry was “mostly tongue and some in upper throat”; the “Cooling Intensity” value was “Mild Cooling”. Also, the Overall entry in the data set on oral cavity (overall taste evaluation) was “Mild cooling noticeable on tongue and some back of the throat”.

With `CC(C)[C@@H]1CC[C@@H](C)C[C@H]1O` [Menthol, (1R,2S,5R)-2-isopropyl-5-methylcyclohexanol, reference compound], the “Targeted Throat Cooling” value with throat is reported as “No”. Besides, in the data set on oral cavity (Table 3), the Duration was in the range of 5 to 6 min and the Overall entry was “Cooling”. Besides, the “Onset time” value with oral cavity (Table 3, values in secs) was about 10 s. In addition, in the data set on oral cavity, the Cooling site result is “Throat and some in oral cavity tongue and front of the mouth”; the “Cooling Intensity” value is recorded as “Intense cooling”. Also, in the data set on oral cavity (in words), the Onset time entry was “Immediate”. The Overall entry in the data set on oral cavity (overall taste evaluation) was “Cooling noticeable on tongue and front of the mouth and throat”.

For the molecule `CCOC(=O)CNC(=O)[C@@H]1C[C@H](C)CC[C@H]1C(C)C` [WS-5, N-[(ethoxycarbonyl)methyl)-p-menthane-3-carboxamide], in data set [1], the Solubility result is “Propylene Glycol, ethanol, insoluble in water”. Besides, the “Targeted Throat Cooling” value in the data set with throat was “Yes”. The Synergistic sensate effect result in the data set on oral cavity is recorded as “Did work, providing synergistic sensate effect”. Besides, the Duration in the data set on oral cavity (Table 3) and in the data set with oral cavity (duration of cooling) was 6 to 7 min in each case. In addition, the Overall result with oral cavity (Table 3) was “Intense cooling”; with oral cavity (overall taste evaluation) it was “Intense cooling noticeable all around the oral cavity, tongue, and upper throat”. Further, the “Onset time” value in the data set with oral cavity (Table 3, values in secs) was about 10 s; in the data set on oral cavity (values in secs), about 10 s. Besides, the Cooling site entry in the data set with oral cavity was “cooling in mouth, tongue along with some cooling in the back of the throat”; in the data set on oral cavity (listed as Symcool WS-5) it was “towards the back on mouth, upper throat, and tongue”. In addition, the “Cooling Intensity” value with oral cavity is reported as “Intense Cooling”.

In the case of `CCNC(=O)[C@@H]1C[C@H](C)CC[C@H]1C(C)C` [WS-3, N-ethyl 2-isopropyl-5-methylcyclohexanecarboxamide], the Solubility result in data set [1] is listed as “Propylene Glycol, ethanol, insoluble in water”. The “Targeted Throat Cooling” value with throat is reported as “Yes”. For the same molecule, in the data set on oral cavity, the Synergistic sensate effect entry is given as “Did work, providing synergistic sensate effect”; the Cooling site entry is listed as “cooling in mouth, tongue along with some cooling in the back of the throat”; the “Cooling Intensity” value is on record as “Intense Cooling, more intense than WS-5”. In the data set on oral cavity (Table 3), the Duration is 4 to 5 min and the Overall result is listed as “Intense”. Moreover, the “Onset time” value in the data set on oral cavity (Table 3, values in secs) is about 10 s. For the same molecule, the Cooling site entry in the data set on oral cavity (listed as Symcool®WS-3) is “towards the back on mouth, upper throat, and tongue”. Moreover, in the data set on oral cavity (overall taste evaluation), the Overall entry was “Intense cooling noticeable all around, tongue, and upper throat, sweeter sensation like menthol”. Also, the Onset time with oral cavity (values in secs) is about 10 s.

For the molecule `CC(O)C(=O)O[C@@H]1C[C@H](C)CC[C@H]1C(C)C` (stereo partly shown) [Symcool NAT, Menthyl Lactate], the Solubility entry in data set [1] is recorded as “Propylene glycol, ethanol”. Also, in the data set on throat, the “Targeted Throat Cooling” value is “Yes”. Further, in the data set on oral cavity, the Synergistic sensate effect entry is “Did work, providing synergistic sensate effect”; the Cooling site result was “cooling in mouth, tongue along with some cooling in the back of the throat; also recorded: Tongue and some throat cooling”; the “Cooling Intensity” value was “medium cooling”. In the data set with oral cavity (Table 3), the Duration is 5 to 6 min and the Overall result was “Medium”. For the same molecule, in the data set on oral cavity (Table 3, values in secs), the “Onset time” value was about 10 s. Besides, the Onset time entry in the data set with oral cavity (in words) is listed as “immediate”. In the data set with oral cavity (overall taste evaluation), the Overall entry was “Liquorish taste and cooling in the mouth and towards the back of the throat, cooling in throat as you breath in, intensity grows with time”.

As for `CNC(=O)C(C)(C(C)C)C(C)C` [WS 23, 2-isopropyl-N,2,3-trimethylbutyramide], the “Targeted Throat Cooling” value with throat was “No”. In the data set with oral cavity (Table 3), the Duration lay in the range of 3 to 4 min and the Overall entry is reported as “Mild cooling”. In addition, the “Onset time” value in the data set with oral cavity (Table 3, values in secs) was about 10 s. In the data set on oral cavity, the Cooling site entry is “tongue and front of the mouth”; the “Cooling Intensity” value was “Mild Cooling, less than WS-3 and WS-5”. In the data set on oral cavity (overall taste evaluation), the Overall entry is “Mild cooling noticeable on tongue, and front of the mouth, tingling and nose cooling as you breath out”. In addition, the Onset time with oral cavity (values in secs) is about 10 s.

For the molecule `CC(C)[C@@H]1CC[C@@H](C)C[C@H]1OC(=O)CCCC(=O)O` (stereo in doubt) [Cooler #2, Monomenthyl Glutarate], the Solubility entry in data set [1] is “Ethanol and Propylene Glycol, insoluble in Water”. Besides, the “Targeted Throat Cooling” value with throat is recorded as “Yes”. Further, in the data set with oral cavity, the Synergistic sensate effect result is “Did work, providing synergistic sensate effect”; the Cooling site entry was “all the cooling was in the back of the throat”; the “Cooling Intensity” value is recorded as “Mild to medium cooling”. Also, the Cooling site entry in the data set on oral cavity (listed as IFF cooler #2) is recorded as “Throat”. In the data set on oral cavity (duration of cooling), the Duration was 7 to 9 min. Further, the Overall result in the data set with oral cavity (overall taste evaluation) is “Cooling concentrated towards the back of the throat, intensity grows with time and duration longer than others”. Also, the Onset time in the data set with oral cavity (values in secs) is about 30 s. The Conductivity result in data set [2] (0.05% of Cooler #2, 0.4% Poloxamer, Water-5% propylene glycol, about 7.4 without cooler) was “about 35 μS/cm”. Moreover, in data set [2] (purified water, Poloxamer-188 0.2% to 2.0%, 0.15% of Cooler #2), the “Effect on conductivity of the solution” value is given as “significant effect on the conductivity of the solution at lower concentrations of Poloxamer-188”.
